For assay [1], the target named is T1, EGFR Exon19Del/T790M (Homo sapiens, UniProt P00533, DEL746-750/T790M).
T1 construct: purchased Carna Bio
Briefly: Inhibition of EGFR Exon19Del/T790M biochemical enzymatic activity (HTRF). The conditions noted are these: EGFR Exon19Del/T790M, 1 mM ATP, 1 h at room temperature, read-out: IC50 @Del19-T790M. The method in brief:
(§1)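 Recombinant kinases phosphorylated 1 μM biotinylated TK substrate with 1 mM ATP in buffer with 5 mM MgCl2, 1 mM MnCl2, 0.01% CHAPS, 1 mM DTT, 0.5% DMSO. Reaction ran 1 h at room temperature, stopped with EDTA-containing detection mix. HTRF 665/615 nm ratio gave IC50 via four-parameter logistic fit.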

Assay [2] has as its target T2, EGFR L858R/T790M (Homo sapiens, UniProt P00533, L858R/T790M).
T2 construct: purchased Carna Bio
The assay is described as follows: Inhibition of EGFR L858R/T790M biochemical enzymatic activity (HTRF). The conditions noted are these: EGFR L858R/T790M, 1 mM ATP, 1 h at room temperature, read-out: IC50 @L858R-T790M. The method in brief: as §1

The target in assay [3] is T3, EGFR[T790M/C797S/L858R] (Homo sapiens, UniProt P00533, C797S/L858R/T790M).
T3 construct: purchased Carna Bio
T3 sequence (P00533 25-1210 T790M/C797S/L858R): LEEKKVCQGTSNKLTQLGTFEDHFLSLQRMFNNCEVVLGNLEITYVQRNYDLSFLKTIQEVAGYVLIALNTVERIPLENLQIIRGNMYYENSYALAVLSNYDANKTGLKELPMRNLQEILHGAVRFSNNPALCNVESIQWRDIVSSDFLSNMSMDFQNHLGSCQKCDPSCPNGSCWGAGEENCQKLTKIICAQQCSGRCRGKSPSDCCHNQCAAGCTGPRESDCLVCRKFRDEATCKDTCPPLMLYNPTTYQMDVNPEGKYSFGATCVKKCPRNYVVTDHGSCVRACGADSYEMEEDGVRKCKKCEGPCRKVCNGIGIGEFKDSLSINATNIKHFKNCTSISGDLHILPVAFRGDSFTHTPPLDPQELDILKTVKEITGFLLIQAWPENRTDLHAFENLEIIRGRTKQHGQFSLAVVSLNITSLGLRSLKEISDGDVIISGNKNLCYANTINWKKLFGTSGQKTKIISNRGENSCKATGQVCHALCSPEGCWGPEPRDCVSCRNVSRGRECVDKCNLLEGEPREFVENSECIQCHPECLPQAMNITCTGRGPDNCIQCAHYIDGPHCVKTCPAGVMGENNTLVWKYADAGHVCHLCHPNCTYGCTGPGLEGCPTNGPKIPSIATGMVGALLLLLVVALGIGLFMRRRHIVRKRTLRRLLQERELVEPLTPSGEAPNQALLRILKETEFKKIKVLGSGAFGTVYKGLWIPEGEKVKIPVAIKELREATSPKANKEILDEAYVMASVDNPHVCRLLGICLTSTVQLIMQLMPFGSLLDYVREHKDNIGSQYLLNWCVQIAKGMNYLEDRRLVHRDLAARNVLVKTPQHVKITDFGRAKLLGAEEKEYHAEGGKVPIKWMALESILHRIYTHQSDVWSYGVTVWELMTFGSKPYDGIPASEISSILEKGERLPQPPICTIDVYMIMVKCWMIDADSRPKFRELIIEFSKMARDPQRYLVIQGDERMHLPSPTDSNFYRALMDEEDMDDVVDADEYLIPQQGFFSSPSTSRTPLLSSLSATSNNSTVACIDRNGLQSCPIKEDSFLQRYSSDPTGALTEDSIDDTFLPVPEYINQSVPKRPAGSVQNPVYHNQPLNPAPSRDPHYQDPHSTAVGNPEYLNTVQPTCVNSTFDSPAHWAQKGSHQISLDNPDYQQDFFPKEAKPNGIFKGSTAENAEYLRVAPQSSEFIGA
Briefly: Inhibition of EGFR[T790M/C797S/L858R] biochemical enzymatic activity (HTRF). To be noted: EGFR[T790M/C797S/L858R], 1 mM ATP, 1 h at room temperature, read-out: IC50 @T790M- C797S - L858R. The method, boiled down:
as §1
In general terms: Time-resolved FRET reads energy transfer from a long-lived donor to a nearby acceptor.

The target in assay [4] is T4, EGFR wild type (Homo sapiens, UniProt P00533).
T4 construct: purchased Carna Bio
Briefly: Inhibition of EGFR wild type biochemical enzymatic activity (HTRF). The conditions noted are these: EGFR wild type, 1 mM ATP, 1 h at room temperature, read-out: IC50 @WT. The method, boiled down: as §1

For assay [5], the system named is Ba/F3 cells expressing EGFR mutations. Briefly: Cell proliferation assay, Ba/F3 cells expressing EGFR mutations (CellTiter-Glo, 72 hours). The assay is classed as cell-based. The method in brief:
(§2)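 Ba/F3 cells (5000/well) and PC-9 cells (500/well, RPMI1640 with 10% FBS) were plated overnight and then dosed with a compound concentration series. Viable cells were read at day 0 (G0) and after treatment (G3). GI50 came from curve fits of G0-corrected proliferation relative to DMSO.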
On the technique in general: ATP-based viability assays read luminescence as a measure of living cells.

Assay [6] addresses T5, EGFR[T790M/C797S/d746-750] (Homo sapiens, UniProt P00533, C797S/DEL746-750/T790M).
T5 construct: purchased Carna Bio
Briefly: Inhibition of EGFR[T790M/C797S/d746-750] biochemical enzymatic activity (HTRF). The conditions noted are these: EGFR[T790M/C797S/d746-750], 1 mM ATP, 1 h at room temperature, read-out: IC50 @T790M - C797S - Del19. The method, boiled down: as §1

In assay [7] the target is T6, EGFR Exon19Del (Homo sapiens, UniProt P00533, DEL746-750).
T6 construct: purchased Carna Bio
The assay is described as follows: Inhibition of EGFR Exon19Del biochemical enzymatic activity (HTRF). To be noted: EGFR Exon19Del, 1 mM ATP, 1 h at room temperature, read-out: IC50 @Del19. The method, boiled down: as §1

Assay [8] has as its target T7, EGFR (C797S L858R) (Homo sapiens, UniProt P00533, C797S/L858R).
T7 construct: purchased signalchem
Briefly: Inhibition of EGFR (C797S L858R) biochemical enzymatic activity (HTRF). The conditions noted are these: EGFR (C797S L858R), 1 mM ATP, 1 h at room temperature, read-out: IC50 @L858-C797S. The method, boiled down: as §1

Assay [9] deals with T8, EGFR (d746-750 C797S) (Homo sapiens, UniProt P00533, C797S/DEL746-750).
T8 construct: purchased signalchem
T8 sequence (P00533 with tags, fused parts or gaps DEL746-750/C797S limits assumed): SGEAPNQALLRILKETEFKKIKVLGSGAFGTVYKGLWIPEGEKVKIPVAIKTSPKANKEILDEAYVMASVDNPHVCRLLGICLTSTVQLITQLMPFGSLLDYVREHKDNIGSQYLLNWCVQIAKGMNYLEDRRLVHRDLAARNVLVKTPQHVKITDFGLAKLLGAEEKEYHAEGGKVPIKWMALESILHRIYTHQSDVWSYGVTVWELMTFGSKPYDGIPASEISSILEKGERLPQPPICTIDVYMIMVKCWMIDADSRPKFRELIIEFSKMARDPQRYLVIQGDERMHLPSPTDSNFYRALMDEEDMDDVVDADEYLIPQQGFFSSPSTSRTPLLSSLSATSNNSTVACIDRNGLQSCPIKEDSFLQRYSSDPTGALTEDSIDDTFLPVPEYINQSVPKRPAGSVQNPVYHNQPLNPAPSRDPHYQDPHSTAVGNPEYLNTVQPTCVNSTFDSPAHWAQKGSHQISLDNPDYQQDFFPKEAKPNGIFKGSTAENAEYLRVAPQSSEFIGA
Briefly: Inhibition of EGFR (d746-750 C797S) biochemical enzymatic activity (HTRF). The conditions noted are these: EGFR (d746-750 C797S), 1 mM ATP, 1 h at room temperature, read-out: IC50 @Del19-C797S. The method, boiled down: as §1

The test system of assay [10] is PC-9. Briefly: Cell proliferation assay, PC-9 cells (CellTiter-Glo, 72 hours). The assay is classed as cell-based. To be noted: PC9 cells, read-out: GI50 PC9. The method, boiled down: as §2
Assay [11] has as its target T9, EGFR L858R (Homo sapiens, UniProt P00533, L858R).
T9 construct: purchased Carna Bio
Briefly: Inhibition of EGFR L858R biochemical enzymatic activity (HTRF). To be noted: 1 mM ATP, 1 h at room temperature, read-out: IC50 @L858R. The method in brief: as §1

Setting [12] is: BaF3 cells, EGFR DEL19 - C797S, read-out: GI50 DEL19 - C797S/BaF3.
The mark [13] stands for this setting: BaF3 cells, EGFR DEL19 - T790-C797S, read-out: GI50 DEL19 - T790-C797S/BaF3.
The mark [14] stands for this setting: BaF3 cells, EGFR L858R - C797S, read-out: GI50 L858R - C797S/BaF3.
[15] abbreviates: BaF3 cells, EGFR L858R - T790-C797S, read-out: GI50 L858R - T790-C797S/BaF3.
Where [16] appears, read: BaF3 cells, EGFR L858R - T790M, read-out: GI50 L858R - T790M/BaF3.
[17] abbreviates: BaF3 cells, EGFR L858R, read-out: GI50 L858R/BaF3.
Where [18] appears, read: EGFR DEL19 - T790M, read-out: GI50 DEL19 - T790M.

Read-outs that look alike come from different tables or passages of the source.

As usually defined, the IC50 is the midpoint of a concentration-inhibition curve.

T1 sequence (P00533 with tags, fused parts or gaps DEL746-750/T790M limits assumed): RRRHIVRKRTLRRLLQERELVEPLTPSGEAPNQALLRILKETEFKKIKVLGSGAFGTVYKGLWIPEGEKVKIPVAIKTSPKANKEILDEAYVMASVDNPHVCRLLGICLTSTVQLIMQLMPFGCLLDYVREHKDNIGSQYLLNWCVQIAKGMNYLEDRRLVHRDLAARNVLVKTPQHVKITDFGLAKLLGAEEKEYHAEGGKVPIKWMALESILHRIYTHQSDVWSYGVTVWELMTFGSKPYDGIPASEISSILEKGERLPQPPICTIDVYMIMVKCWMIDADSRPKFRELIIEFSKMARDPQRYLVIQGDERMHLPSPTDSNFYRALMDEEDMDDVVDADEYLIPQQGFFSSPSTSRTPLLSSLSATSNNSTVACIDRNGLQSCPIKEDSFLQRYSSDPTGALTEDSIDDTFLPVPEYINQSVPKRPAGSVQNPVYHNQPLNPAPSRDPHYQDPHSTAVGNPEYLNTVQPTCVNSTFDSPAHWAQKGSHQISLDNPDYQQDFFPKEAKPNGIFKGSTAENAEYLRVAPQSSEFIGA
T7 sequence (P00533 25-1210 C797S/L858R): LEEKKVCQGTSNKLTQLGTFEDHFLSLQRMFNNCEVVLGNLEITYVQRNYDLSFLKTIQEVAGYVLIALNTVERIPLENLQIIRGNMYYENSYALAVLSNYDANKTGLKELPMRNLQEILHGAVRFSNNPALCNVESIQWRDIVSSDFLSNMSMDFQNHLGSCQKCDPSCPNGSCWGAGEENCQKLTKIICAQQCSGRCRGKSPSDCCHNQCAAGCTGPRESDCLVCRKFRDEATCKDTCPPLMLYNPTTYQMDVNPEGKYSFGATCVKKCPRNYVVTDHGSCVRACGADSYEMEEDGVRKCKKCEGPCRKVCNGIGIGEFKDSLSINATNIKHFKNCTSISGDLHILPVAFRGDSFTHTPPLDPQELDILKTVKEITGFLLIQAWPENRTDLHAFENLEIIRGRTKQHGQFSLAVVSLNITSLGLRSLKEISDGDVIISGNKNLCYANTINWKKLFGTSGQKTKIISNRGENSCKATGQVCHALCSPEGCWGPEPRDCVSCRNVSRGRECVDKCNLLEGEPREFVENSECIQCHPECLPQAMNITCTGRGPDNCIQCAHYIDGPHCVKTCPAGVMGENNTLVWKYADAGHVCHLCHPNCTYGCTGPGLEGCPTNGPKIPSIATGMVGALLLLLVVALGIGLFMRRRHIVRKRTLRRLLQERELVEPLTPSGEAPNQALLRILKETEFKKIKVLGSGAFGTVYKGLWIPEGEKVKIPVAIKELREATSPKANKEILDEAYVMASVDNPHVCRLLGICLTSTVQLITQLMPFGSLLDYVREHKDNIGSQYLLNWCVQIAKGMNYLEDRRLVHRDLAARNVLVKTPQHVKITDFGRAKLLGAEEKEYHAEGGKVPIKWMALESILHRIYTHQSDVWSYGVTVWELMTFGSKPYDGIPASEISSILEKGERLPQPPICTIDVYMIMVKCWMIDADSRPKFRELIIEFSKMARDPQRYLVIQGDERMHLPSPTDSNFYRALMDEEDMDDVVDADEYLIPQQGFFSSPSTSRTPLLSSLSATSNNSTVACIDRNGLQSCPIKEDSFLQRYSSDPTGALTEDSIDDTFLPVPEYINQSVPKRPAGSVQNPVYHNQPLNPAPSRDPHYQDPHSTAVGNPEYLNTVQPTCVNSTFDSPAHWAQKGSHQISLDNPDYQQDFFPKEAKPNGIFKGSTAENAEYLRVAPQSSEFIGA
T9 sequence (P00533 25-1210 L858R): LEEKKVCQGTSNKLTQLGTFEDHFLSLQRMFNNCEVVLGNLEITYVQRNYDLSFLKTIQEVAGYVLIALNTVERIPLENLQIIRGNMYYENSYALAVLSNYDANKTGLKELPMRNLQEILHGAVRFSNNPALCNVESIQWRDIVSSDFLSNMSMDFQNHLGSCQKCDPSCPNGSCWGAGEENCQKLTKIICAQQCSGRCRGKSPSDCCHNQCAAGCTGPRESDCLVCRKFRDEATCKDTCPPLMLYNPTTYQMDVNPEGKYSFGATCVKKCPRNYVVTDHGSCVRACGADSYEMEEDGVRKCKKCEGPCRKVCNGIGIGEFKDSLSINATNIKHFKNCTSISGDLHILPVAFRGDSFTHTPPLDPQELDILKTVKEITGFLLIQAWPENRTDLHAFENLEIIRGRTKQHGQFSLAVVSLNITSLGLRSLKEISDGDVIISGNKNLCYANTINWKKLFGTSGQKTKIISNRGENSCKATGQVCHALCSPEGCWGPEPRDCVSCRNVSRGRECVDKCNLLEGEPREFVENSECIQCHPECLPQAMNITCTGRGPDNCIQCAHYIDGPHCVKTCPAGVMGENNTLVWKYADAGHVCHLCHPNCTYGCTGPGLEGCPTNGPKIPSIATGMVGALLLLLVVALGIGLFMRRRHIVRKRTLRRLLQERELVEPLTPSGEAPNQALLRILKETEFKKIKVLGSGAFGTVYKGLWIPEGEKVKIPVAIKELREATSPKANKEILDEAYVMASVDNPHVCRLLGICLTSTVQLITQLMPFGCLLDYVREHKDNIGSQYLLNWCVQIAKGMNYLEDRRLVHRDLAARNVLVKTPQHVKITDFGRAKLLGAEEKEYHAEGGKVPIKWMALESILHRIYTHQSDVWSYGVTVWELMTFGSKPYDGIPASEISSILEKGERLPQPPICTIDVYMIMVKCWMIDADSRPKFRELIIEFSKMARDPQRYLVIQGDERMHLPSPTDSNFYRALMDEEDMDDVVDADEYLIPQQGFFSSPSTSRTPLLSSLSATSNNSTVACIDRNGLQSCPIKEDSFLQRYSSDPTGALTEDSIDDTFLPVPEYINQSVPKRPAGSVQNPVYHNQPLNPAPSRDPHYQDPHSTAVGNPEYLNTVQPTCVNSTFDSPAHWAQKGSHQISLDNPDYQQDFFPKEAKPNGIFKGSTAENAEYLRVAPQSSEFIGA

As to `Cc1cc2cc(n1)-c1cnn(C)c1OCCN1CC3CCC(C3)(C1)n1c(nc3ccc(N4CC[C@@H](N(C)C)C4)cc31)NC2=O` (single isomer, unassigned) [Example B42A], the half-maximal inhibitory concentration (IC50) in assay [1] was 2.48 µM; in assay [2], greater than 5 µM; in assay [3], greater than 5 µM; in assay [4], greater than 5 µM; in assay [6] it was 1.08 µM; in assay [7], greater than 5 µM. Further, the IC50 in [8], in assay [9] and in [11] was greater than 5 µM throughout. Besides, the GI50 was 0.865 µM in [5] (setting [12]); 0.476 µM in assay [5] (setting [13]); 0.602 µM in assay [5] (setting [14]); 0.075 µM in assay [5] (setting [15]); 0.354 µM in [5] (setting [16]); 1.77 µM in assay [5] (setting [17]). For the same compound, the GI50 in [5] (setting [18]) was found to be 0.468 µM; in assay [10] it was 1.59 µM.

`Cc1cc2cc(n1)-c1cnn(C)c1OCCN1CC3CCC(C3)(C1)n1c(nc3ccc(N4CCC5(CCN(C)CC5)C4)cc31)NC2=O` (single isomer, unassigned) [Example B51A]: the IC50 was 3.37 µM in assay [1]; greater than 5 µM in [2]; greater than 5 µM in assay [3]; greater than 5 µM in [4]; 1.1 µM in [6]; greater than 5 µM in assay [7]. Besides, the IC50 in assay [8], in assay [9] and in [11] was greater than 5 µM each time. Moreover, the GI50 in assay [5] (setting [12]) was 0.357 µM; in [5] (setting [13]), 0.615 µM; in assay [5] (setting [14]), 1.08 µM; in assay [5] (setting [15]), 0.124 µM; in assay [5] (setting [16]), 0.383 µM; in [5] (setting [17]) it was 2.85 µM. The GI50 in assay [5] (setting [18]) turned out to be 0.53 µM; in [10], 3.02 µM.

(Values after patent US20260365670A1, “EGFR INHIBITORS AND USES THEREOF” (DIZAL (JIANGSU) PHARMACEUTICAL CO., LTD., priority 2022, published 2026).)
